Reference: the supplement of paper PMC10307832

Assays:
Test in all cases: relative viability (nuclei count vs DMSO), 5 days (fraction); higher = more cells survive
[1] = compound: C1CSC2=C(C(=O)N1)SC3=C2C=C(C=C3)O [kb NB 142-70] + CC(=O)c1c(C)c2cnc(Nc3ccc(N4CCNCC4)cn3)nc2n(C2CCCC2)c1=O [Palbociclib] (partner 0.5 µM)
Summary of the method: (§1)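 For relative viability, nuclei counts in treated wells were divided by those in vehicle wells. Lung cancer cell lines had been pin-tool dosed in 1536-well plates the day after seeding and cultured for 5 days, then fixed and stained in one step (final 0.05% Triton X-100, 1% formaldehyde, 1 ug/ml Hoechst) and imaged at 4×. Doses were one drug alone or a fixed anchor-drug dose plus five library-drug doses (not always all listed) in √10 steps, and values are duplicate-plate medians.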

[2] = compound: NCC(=O)Nc1ccc(-n2nc(C(F)(F)F)cc2-c2ccc3c(ccc4ccccc43)c2)cc1 + COc1cc2c(Oc3ccc(NC(=O)C4(C(=O)Nc5ccc(F)cc5)CC4)cc3F)ccnc2cc1OCCCN1CCOCC1 [Foretinib] (partner 0.25 µM)
Summary of the method: as §1

[3] = compound: NCC(=O)Nc1ccc(-n2nc(C(F)(F)F)cc2-c2ccc3c(ccc4ccccc43)c2)cc1 + COc1cccc2cc(-c3nc([C@H]4CC[C@H](C(=O)O)CC4)n4ncnc(N)c34)[nH]c12 [OSI-027] (partner 0.5 µM)
Summary of the method: as §1

[4] = compound: NCC(=O)Nc1ccc(-n2nc(C(F)(F)F)cc2-c2ccc3c(ccc4ccccc43)c2)cc1 + CS(=O)(=O)N1CCN(Cc2cc3nc(-c4cccc5[nH]ncc45)nc(N4CCOCC4)c3s2)CC1 [Pictilisib] (partner 1 µM)
Summary of the method: as §1

UMC-11
relative viability ([1]; first compound 0.1 µM): 0.322 | relative viability ([1]; first compound 1 µM): 0.344 | relative viability ([1]; first compound 3.162 µM): 0.324 | relative viability ([2]; first compound 0.02 µM): 0.974 | relative viability ([2]; first compound 0.06325 µM): 1.04 | relative viability ([2]; first compound 0.2 µM): 1.06 | relative viability ([2]; first compound 0.6325 µM): 1.01 | relative viability ([2]; first compound 2 µM): 1.11 | relative viability ([3]; first compound 0.02 µM): 0.402 | relative viability ([3]; first compound 0.06325 µM): 0.475 | relative viability ([3]; first compound 0.2 µM): 0.485 | relative viability ([3]; first compound 0.6325 µM): 0.443 | relative viability ([3]; first compound 2 µM): 0.453 | relative viability ([4]; first compound 0.02 µM): 0.835 | relative viability ([4]; first compound 0.06325 µM): 0.866 | relative viability ([4]; first compound 0.2 µM): 0.858 | relative viability ([4]; first compound 0.6325 µM): 0.732 | relative viability ([4]; first compound 2 µM): 0.828
